Test results published in US5929035A, “Methods of treating intestinal disorders” (Regents of the University of Michigan, priority 1998, dated 1999).
Values joined by “and” are separate entries in the source; they are usually repeats but may differ in a detail not shown here. Equal entries are not always repeated. Where two headings read alike, the source gives them in different places.

How the values were obtained:
[1] = system: longitudinal muscle from rat proximal colon
[2] = system: 3H-ACh release from longitudinal muscle strips of proximal colon; design: species or system rat
proximal colon = system: proximal colon; design: species or system rats; details: rat, in vivo, iv
gastrointestinal transit = system: gastrointestinal transit; design: species or system rats; details: rat, in vivo, sc
stomach = system: stomach; design: species or system rats; details: rat, in vivo, iv
[3] = system: longitudinal and circular muscle layer from the stomach and small intestine; design: species or system rat
[4] = system: 3H-ACh release from longitudinal muscle strips of ileum; design: species or system rat
opioid receptor = details: cited from earlier work
[5] = system: longitudinal muscle strips of proximal colon from BAC- or vehicle-treated rats; test: Benzalkonium chloride (BAC) myenteric plexus ablation, organ bath experiments; design: species or system rat
From the text: This example examined benzalkonium chloride (BAC)-treatment. […] EFS caused frequency-dependent and TTX-sensitive contractions in vehicle-treated tissues but not BAC-treated tissues. However, carbachol contracted both vehicle- and BAC-treated tissues with the same degree. These previous studies indicate that chronic ablation of the myenteric plexus by serosal application of BAC essentially eliminates neuronally mediated responses without a concomitant alteration in muscle contractility. To investigate if the action of OFQ is mediated via intramural myenteric plexus, BAC (0.1%) was applied to the serosal surface of the proximal colon every 5 min for 30 min and then rinsed off with saline. Saline-treated group served as controls. Two weeks after BAC- or saline-treatment, the longitudinal muscle strips were used for the organ bath experiments.
The area under the curve was calculated using Planix 7 (Sokkia Corporation,Overland Park, Kans.) and expressed as a motility index. The area under the curve of basal contraction was evaluated over 10 min in each experiment. The area under the curve of antagonist-induced contractions and OFQ-induced contractions was also evaluated over 10 min. The motility index was compared between basal contractions and OFQ-induced contractions in each experiment.

[6] = system: longitudinal and circular muscle of the rat proximal colon
[7] = system: longitudinal muscle strips from rat ileum
mouse vas deferens = details: cited from earlier work
[8] = system: 3H-ACh release from longitudinal muscle strips of gastric body; design: species or system rat
[9] = system: longitudinal muscle from the rat proximal colon
guinea pig ileum = details: cited from earlier work
[10] = system: longitudinal muscle strips from rat gastric body
colonic transit = system: colonic transit; design: species or system rats; details: rat, in vivo, sc
[11] = system: longitudinal and circular muscle from rat colon (proximal colon and distal colon)
[12] = system: longitudinal muscle strips from rat proximal colon
post-operative ileus = details: cited from earlier work
colonic motility = details: literature; cited from earlier work
IBS patients = details: literature; cited from earlier work
[13] = patients after abdominal / gastrointestinal surgery, literature trials

## COC(=O)[C@@H](N)CCCNC(=N)N[N+](=O)[O-] [L-NAME, NG-nitro-L-arginine methyl ester]
[1]
  effect of antagonist on OFQ-induced contractions: preserved
  effect on spontaneous contractions in the proximal colon: enhanced spontaneous contractions

## CC(C)NCC(O)COc1cccc2ccccc12 (stereo not shown) [propranolol]
[1]
  effect of antagonist on OFQ-induced contractions: not affected

## N=C(N)NCCN1CCCCCCC1 [guanethidine]
[1]
  effect of antagonist on OFQ-induced contractions: not affected

## [p-chloro-D-Phe^6, LEU ^17 ]-VIP [VIP antagonist]
[1]
  antagonism of the action of VIP: significantly antagonized
  effect of antagonist on OFQ-induced contractions: did not affect
  effect on spontaneous contractions in the proximal colon: no significant effects

## [D-Pro^4, D-Trp7.9]-substance P 4-11 [substance P antagonist]
[1]
  effect of antagonist on OFQ-induced contractions: did not affect

## C[N+](C)(C)CCCCCC[N+](C)(C)C [hexamethonium]
[1]
  effect of antagonist on OFQ-induced contractions: did not affect

## CC(C)C[C@H](NC(=O)[C@H](CCCCN)NC(=O)[C@H](CCCN=C(N)N)NC(=O)[C@H](C)NC(=O)[C@H](CO)NC(=O)[C@H](CCCCN)NC(=O)[C@H](CCCN=C(N)N)NC(=O)[C@H](C)NC(=O)CNC(=O)[C@@H](NC(=O)[C@H](Cc1ccccc1)NC(=O)CNC(=O)CNC(=O)[C@@H](N)Cc1ccccc1)[C@@H](C)O)C(=O)N[C@@H](C)C(=O)N[C@@H](CC(N)=O)C(=O)N[C@@H](CCC(N)=O)C(=O)O [OFQ, Phe-Gly-Gly-Phe-Thr-Gly-Ala-Arg-Lys-Ser-Ala-Arg-Lys-Leu-Ala-Asn-Gln]
[2]
  basal release of 3H-ACh: no effects
  inhibitory effect on EFS-evoked 3H-ACh release: not observed
Proximal colon
  muscular contractions in the proximal colon: significantly increased muscular contractions
Gastrointestinal transit
  gastrointestinal transit: without affecting
stomach
  muscular contractions in the stomach: not in the stomach
[3]
  contractions in longitudinal and circular muscle layer from stomach and small intestine: failed to elicit significant contractions
[1]
  OFQ-induced contractions in Ca2+-free medium: abolished
[4]
  3H-ACh release in response to EFS reduced to: 44.7±5.8%
  basal release of 3H-ACh: no effects
Opioid receptor
  activity at the opioid receptor: does not show any activity
[5]
  contraction of longitudinal muscle from vehicle-treated rats: caused significant contractions
  contraction of longitudinal muscles from BAC-treated rats: no contractile effects
[6]
  contractions at 10^-7 M compared with 10^-6 M: not significantly different
  dose dependence of induced contractions: in a dose-dependent manner
  maximal effect, increase of basal contraction: 278%±24% and 215%±32%
  persistence of strong phasic contractions: 10 to 15 min
  strips showing a potent initial phasic contraction followed by a phasic response: 60.9%
  strips showing a smaller initial contraction followed by a gradually increasing phasic response: 26.4%
  strips showing only a slight initial contraction followed by a pronounced phasic response: 12.6%
[7]
  EFS-evoked muscular contraction reduced to: 41.2±8.5%
  EFS-evoked on- and off-contraction in ileum: significantly reduced
  dose dependence of reduction of EFS-evoked muscular contraction: in a dose dependent manner
Mouse vas deferens
  effect on EFS-evoked muscular contraction: potent inhibitory effects
[8]
  3H-ACh release in response to EFS reduced to: 88.1±4.3%
  basal release of 3H-ACh: no effects
[9]
  OFQ-induced contractions in the presence of TTX: failed to elicit additional contractions
Guinea pig ileum
  effect on EFS-evoked muscular contraction: potent inhibitory effects
[10]
  EFS-evoked muscular contraction reduced to: 85.2±5.6%
  EFS-evoked of-contraction in the stomach: significantly reduced
  dose dependence of reduction of EFS-evoked muscular contraction: in a dose dependent manner
Colonic transit
  colonic transit: significantly accelerated
[11]
  contractions in longitudinal muscle of proximal colon compared with distal colon (in words): much greater
  contractions in longitudinal muscle of proximal colon relative to distal colon: 2-3 fold
  region of rat gastrointestinal tract in which contractions were induced: induced contractions only in the colon
  threshold OFQ concentration inducing contractions: 10^-9 M
[12]
  off-contraction in response to EFS of the proximal colon: no inhibitory effects
  reduction of EFS-evoked muscular contraction: not in the proximal colon

## CCCCCCCCCCCCC[N+](C)(C)Cc1ccccc1 [BAC, benzalkonium chloride]
[5]; BAC 0.1% on serosal surface of proximal colon, two weeks before
  spontaneous basal muscle contraction in BAC-treated vs vehicle-treated tissues: significantly higher
[5]; EFS 65 V, 0.5 msec, 10 Hz
  response to EFS of muscle strips from BAC-treated rats: failed to cause any responses

## CC(C)C[C@@H]1NC(=O)[C@H](C)NC(=O)[C@H]([C@@H](C)O)NC(=O)[C@H](CCC(=O)O)NC(=O)[C@@H]2CCCN2C(=O)[C@H](C)NC(=O)[C@H](CCCCN)NC(=O)[C@@H]2CSSC[C@@H](C(=O)N[C@@H](CCC(N)=O)C(=O)N[C@@H](CCC(N)=O)C(=O)N[C@@H](Cc3cnc[nH]3)C(N)=O)NC(=O)[C@H](CCCNC(=N)N)NC(=O)[C@H](CCCNC(=N)N)NC(=O)[C@H](C)NC(=O)[C@H](CSSC[C@H](N)C(=O)N[C@@H](CC(N)=O)C(=O)N2)NC1=O [apamin]
[1]
  effect of antagonist on OFQ-induced contractions: preserved
  effect on spontaneous contractions in the proximal colon: enhanced spontaneous contractions

## CN1[C@@H]2CC[C@H]1C[C@@H](OC(=O)C(CO)c1ccccc1)C2 (stereo partly shown) [atropine, Atropine, reference compound]
[1]
  effect of antagonist on OFQ-induced contractions: did not affect
[7]
  EFS-evoked on- and off-contraction reduced to: 10-20%
[10]
  EFS-evoked on- and off-contraction reduced to: 10-20%
[12]
  EFS-evoked on- and off-contraction reduced to: 10-20%

## C=CCN1CC[C@]23c4c5ccc(O)c4O[C@H]2C(=O)CC[C@@]3(O)[C@H]1C5 [naloxone]
[1]; 10 min preincubation, then OFQ (10^-8 M), atropine 10^-6 M, hexamethonium 10^-4 M, naloxone 10^-5 M, indomethacin 10^-5 M, methysergide 3x10^-5 M, substance P antagonist 10^-5 M, VIP antagonist 5x10^-6 M, L-NAME 10^-4 M, apamin 10^-6 M, guanethidine, phentolamine, propranolol 10^-6 M
  effect of antagonist on OFQ-induced contractions: did not affect

## CC[C@@H](CO)NC(=O)[C@@H]1C=C2c3cccc4c3c(cn4C)C[C@H]2N(C)C1 [methysergide]
[1]
  effect of antagonist on OFQ-induced contractions: did not affect

## CN1C[C@H](C(=O)N[C@]2(C)O[C@@]3(O)[C@@H]4CCCN4C(=O)[C@H](Cc4ccccc4)N3C2=O)C[C@@H]2c3cccc4[nH]cc(c34)C[C@H]21 [DHE, dihydroergotamine]
post-operative ileus; [13]
  duration of post-operative ileus, treated vs placebo/control patients: no significant differences

## Cc1ccc(N(CC2=NCCN2)c2cccc(O)c2)cc1 [phentolamine]
[1]
  effect of antagonist on OFQ-induced contractions: not affected

## CCN(CC)CCNC(=O)c1cc(Cl)c(N)cc1OC [metoclopramide]
Colonic motility
  effect on colonic motility: little effect
  efficacy in constipated patients: not very effective

## C[N+](C)(C)CCOC(N)=O [carbachol, reference compound]
[5]; carbachol 10^-6 M
  contraction of control and BAC-treated tissues: contracted both control and BAC-treated tissues with the same degree
[9]
  contractions in the presence of TTX: caused further contractions

## COc1cc(N)c(Cl)cc1C(=O)NC1CCN(CCCOc2ccc(F)cc2)CC1OC (stereo not shown) [cisapride, Cisapride]
IBS patients
  stool frequency in IBS patients: increase stool frequency
  whole gut transit in IBS patients: accelerate whole gut transit
post-operative ileus; [13]
  duration of post-operative ileus, treated vs placebo/control patients: no difference
Colonic motility
  effect on colonic motility: little effect
  efficacy in constipated patients: not very effective

## COc1ccc2c(c1)c(CC(=O)O)c(C)n2C(=O)c1ccc(Cl)cc1 [indomethacin]
[1]
  effect of antagonist on OFQ-induced contractions: did not affect

## dynorphin A [reference compound]
Colonic transit
  colonic transit: delays colonic transit

B1: cholecystokinin (peptide, UniProt P06307 21-115, looked up)
Cholecystokinin: QPVPPADPAGSGLQRAEEAPRRQLRVSQRTDGESRAHLGALLARYIQQARKAPSGRMSIVKNLQNLDPSHRISDRDYMGWMDFGRRSAEEYEYPS
modifications: Cholecystokinin
post-operative ileus; human, in vivo
  duration of post-operative ileus, treated vs placebo/control patients: no differences
